Test results as given in PubChem BioAssay (NCI).
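These data come from cells grown in 96-well plates and exposed to compound for 48 hours at five concentrations. TGI: total growth inhibition.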

Experiments:
Assay in all cases: DTP human tumour cell line panel, 48 h
[1] = tested on: 786-0 renal
[2] = tested on: A498 renal
[3] = tested on: A549 NSCLC
[4] = tested on: ACHN renal
[5] = tested on: BT-549 breast
[6] = tested on: CAKI-1 renal
[7] = tested on: COLO 205 colon
[8] = tested on: DU-145 prostate
[9] = tested on: EKVX NSCLC
[10] = tested on: HCC-2998 colon
[11] = tested on: HCT-116 colon
[12] = tested on: HCT-15 colon
[13] = tested on: HOP-62 NSCLC
[14] = tested on: HOP-92 NSCLC
[15] = tested on: HS 578T breast
[16] = tested on: HT29 colon
[17] = tested on: K-562 leukemia
[18] = tested on: KM12 colon
[19] = tested on: LOX IMVI melanoma
[20] = tested on: M14 melanoma
[21] = tested on: MALME-3M melanoma
[22] = tested on: MCF7 breast
[23] = tested on: MDA-MB-231 breast
[24] = tested on: MDA-MB-435
[25] = tested on: MDA-N
[26] = tested on: MOLT-4 leukemia
[27] = tested on: NCI-H226 lung
[28] = tested on: NCI-H23 lung
[29] = tested on: NCI-H460 lung
[30] = tested on: NCI-H522 lung
[31] = tested on: NCI/ADR-RES ovarian
[32] = tested on: OVCAR-3 ovarian
[33] = tested on: OVCAR-4 ovarian
[34] = tested on: OVCAR-5 ovarian
[35] = tested on: OVCAR-8 ovarian
[36] = tested on: PC-3 prostate
[37] = tested on: RPMI-8226 leukemia
[38] = tested on: RXF 393 renal
[39] = tested on: SF-268 CNS
[40] = tested on: SF-295 CNS
[41] = tested on: SF-539 CNS
[42] = tested on: SK-MEL-2 melanoma
[43] = tested on: SK-MEL-28 melanoma
[44] = tested on: SK-MEL-5 melanoma
[45] = tested on: SK-OV-3 ovarian
[46] = tested on: SN12C renal
[47] = tested on: SNB-19 CNS
[48] = tested on: SNB-75 CNS
[49] = tested on: SW-620 colon
[50] = tested on: T-47D breast
[51] = tested on: TK-10 renal
[52] = tested on: U251 CNS
[53] = tested on: UACC-257 melanoma
[54] = tested on: UACC-62 melanoma
[55] = tested on: UO-31 renal
[56] = tested on: CCRF-CEM leukemia
[57] = tested on: HL-60(TB) leukemia
[58] = tested on: IGROV1 ovarian
[59] = tested on: SR leukemia

N#CCCN(CCNc1ccccc1)C(=O)Nc1ccc(NC(=O)N(CCC#N)CCNc2ccccc2)cc1
TGI [1]: > 100 µM | TGI [2]: > 100 µM | TGI [3]: > 100 µM | TGI [4]: > 100 µM | TGI [5]: > 80.4 µM | TGI [6]: > 100 µM | TGI [7]: > 100 µM | TGI [8]: > 100 µM | TGI [9]: > 100 µM | TGI [10]: > 100 µM | TGI [11]: > 100 µM | TGI [12]: > 100 µM | TGI [13]: > 84.7 µM | TGI [14]: > 81.5 µM | TGI [15]: > 64.2 µM | TGI [16]: > 100 µM | TGI [17]: > 100 µM | TGI [18]: > 100 µM | TGI [19]: > 100 µM | TGI [20]: > 100 µM | TGI [21]: > 100 µM | TGI [22]: > 100 µM | TGI [23]: > 100 µM | TGI [24]: > 100 µM | TGI [25]: > 100 µM | TGI [26]: > 100 µM | TGI [27]: > 100 µM | TGI [28]: > 100 µM | TGI [29]: > 100 µM | TGI [30]: > 66.3 µM | TGI [31]: > 100 µM | TGI [32]: > 100 µM | TGI [33]: > 31.6 µM | TGI [34]: > 100 µM | TGI [35]: > 100 µM | TGI [36]: > 100 µM | TGI [37]: > 100 µM | TGI [38]: > 83 µM | TGI [39]: > 79.9 µM | TGI [40]: > 100 µM | TGI [41]: > 100 µM | TGI [42]: > 100 µM | TGI [43]: > 100 µM | TGI [44]: > 100 µM | TGI [45]: > 100 µM | TGI [46]: > 100 µM | TGI [47]: > 100 µM | TGI [48]: 72 µM | TGI [49]: > 100 µM | TGI [50]: > 100 µM | TGI [51]: 98 µM | TGI [52]: > 100 µM | TGI [53]: > 100 µM | TGI [54]: > 100 µM | TGI [55]: > 100 µM

CN=c1oc2ccccc2cc1C(N)=O
TGI [1]: > 100 µM | TGI [3]: > 100 µM | TGI [4]: > 100 µM | TGI [5]: > 100 µM | TGI [6]: > 100 µM | TGI [56]: > 100 µM | TGI [7]: > 100 µM | TGI [8]: > 100 µM | TGI [9]: > 100 µM | TGI [10]: > 100 µM | TGI [11]: > 100 µM | TGI [12]: > 100 µM | TGI [57]: > 100 µM | TGI [13]: > 100 µM | TGI [14]: > 100 µM | TGI [15]: > 100 µM | TGI [16]: > 100 µM | TGI [58]: > 100 µM | TGI [17]: > 100 µM | TGI [18]: > 100 µM | TGI [19]: > 100 µM | TGI [20]: > 100 µM | TGI [22]: > 100 µM | TGI [23]: > 100 µM | TGI [24]: > 100 µM | TGI [25]: > 100 µM | TGI [26]: > 100 µM | TGI [27]: > 100 µM | TGI [28]: > 100 µM | TGI [29]: > 100 µM | TGI [30]: > 100 µM | TGI [31]: > 100 µM | TGI [32]: > 100 µM | TGI [35]: > 100 µM | TGI [36]: > 100 µM | TGI [37]: > 100 µM | TGI [38]: > 100 µM | TGI [39]: > 100 µM | TGI [40]: > 100 µM | TGI [41]: > 100 µM | TGI [42]: > 100 µM | TGI [43]: > 100 µM | TGI [44]: > 100 µM | TGI [45]: > 100 µM | TGI [46]: > 100 µM | TGI [47]: > 100 µM | TGI [48]: > 100 µM | TGI [59]: > 100 µM | TGI [49]: > 100 µM | TGI [50]: > 100 µM | TGI [51]: > 100 µM | TGI [52]: > 100 µM | TGI [53]: > 100 µM | TGI [54]: > 100 µM | TGI [55]: > 100 µM
